Measured values: the kinase profiling compilation of Christmann-Franck et al. (2016)

How the values were obtained:
Assay in all cases: KINOMEscan competition binding
Details in all cases: compound 10.0 µM
ACVR2B (human) = ACVR2B (human) (UniProt Q13705)
ALK (human) = ALK (human) (UniProt Q9UM73)
BMPR1B (human) = BMPR1B (human) (UniProt O00238)
CAMK1G (human) = CAMK1G (human) (UniProt Q96NX5)
CAMK2G (human) = CAMK2G (human) (UniProt Q13555)
CDC42BPA (human) = CDC42BPA (human) (UniProt Q5VT25)
CDK3 (human) = CDK3 (human) (UniProt Q00526)
CDK4 CCND3 (human) = CDK4 CCND3 (human) (UniProt P11802+P30281)
Sequence of CDK4 CCND3 (human) (P11802 whole entry, looked up): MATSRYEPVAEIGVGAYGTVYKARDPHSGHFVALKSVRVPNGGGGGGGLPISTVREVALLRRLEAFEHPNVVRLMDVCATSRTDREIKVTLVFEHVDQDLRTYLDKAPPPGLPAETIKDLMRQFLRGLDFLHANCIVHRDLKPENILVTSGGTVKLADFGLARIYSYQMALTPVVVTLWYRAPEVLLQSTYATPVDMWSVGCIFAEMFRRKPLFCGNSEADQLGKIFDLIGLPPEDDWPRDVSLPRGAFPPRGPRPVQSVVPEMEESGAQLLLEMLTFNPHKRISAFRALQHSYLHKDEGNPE
Sequence of CDK4 CCND3 (human) (P30281 whole entry, looked up): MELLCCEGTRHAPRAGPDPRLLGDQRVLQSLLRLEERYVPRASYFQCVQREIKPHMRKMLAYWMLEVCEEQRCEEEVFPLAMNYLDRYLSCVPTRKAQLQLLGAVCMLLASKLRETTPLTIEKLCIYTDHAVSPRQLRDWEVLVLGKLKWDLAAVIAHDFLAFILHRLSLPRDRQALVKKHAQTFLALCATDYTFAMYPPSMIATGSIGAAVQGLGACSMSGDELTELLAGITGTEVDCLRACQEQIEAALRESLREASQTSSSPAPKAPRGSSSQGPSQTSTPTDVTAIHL

CHUK (human) = CHUK (human) (UniProt O15111)
DDR1 (human) = DDR1 (human) (UniProt Q08345)
Sequence of DDR1 (human) (Q08345 whole entry, looked up): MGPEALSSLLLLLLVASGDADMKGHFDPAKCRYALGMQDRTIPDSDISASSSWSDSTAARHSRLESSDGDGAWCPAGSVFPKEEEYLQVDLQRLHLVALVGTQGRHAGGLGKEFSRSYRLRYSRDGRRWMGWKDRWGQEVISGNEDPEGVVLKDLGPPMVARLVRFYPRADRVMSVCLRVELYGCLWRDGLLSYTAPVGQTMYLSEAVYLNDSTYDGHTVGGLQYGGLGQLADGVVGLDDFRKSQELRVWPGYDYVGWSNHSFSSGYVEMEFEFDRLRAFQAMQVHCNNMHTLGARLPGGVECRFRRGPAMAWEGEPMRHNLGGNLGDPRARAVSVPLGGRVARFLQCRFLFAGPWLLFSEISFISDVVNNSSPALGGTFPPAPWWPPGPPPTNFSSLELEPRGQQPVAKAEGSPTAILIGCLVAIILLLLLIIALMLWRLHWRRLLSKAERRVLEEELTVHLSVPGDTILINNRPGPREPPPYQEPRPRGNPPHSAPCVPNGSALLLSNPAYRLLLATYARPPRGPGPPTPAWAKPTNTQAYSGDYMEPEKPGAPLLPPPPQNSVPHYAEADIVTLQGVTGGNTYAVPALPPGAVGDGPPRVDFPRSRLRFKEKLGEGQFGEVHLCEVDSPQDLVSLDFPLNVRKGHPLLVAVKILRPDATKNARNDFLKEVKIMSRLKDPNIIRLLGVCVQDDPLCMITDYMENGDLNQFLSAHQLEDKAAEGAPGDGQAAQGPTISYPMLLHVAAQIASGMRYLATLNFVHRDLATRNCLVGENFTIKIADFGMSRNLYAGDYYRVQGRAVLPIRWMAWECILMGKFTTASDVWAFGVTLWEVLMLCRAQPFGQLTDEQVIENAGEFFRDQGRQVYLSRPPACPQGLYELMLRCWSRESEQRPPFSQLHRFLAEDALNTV

DMPK (human) = DMPK (human) (UniProt Q09013)
DYRK1B (human) = DYRK1B (human) (UniProt Q9Y463)
EIF2AK1 (human) = EIF2AK1 (human) (UniProt Q9BQI3)
EPHA6 (human) = EPHA6 (human) (UniProt Q9UF33)
ERBB3 (human) = ERBB3 (human) (UniProt P21860)
FER (human) = FER (human) (UniProt P16591)
LTK (human) = LTK (human) (UniProt P29376)
MAP2K6 (human) = MAP2K6 (human) (UniProt P52564)
MAPK3 (human) = MAPK3 (human) (UniProt P27361)
MKNK2 (human) = MKNK2 (human) (UniProt Q9HBH9)
Sequence of MKNK2 (human) (Q9HBH9 whole entry, looked up): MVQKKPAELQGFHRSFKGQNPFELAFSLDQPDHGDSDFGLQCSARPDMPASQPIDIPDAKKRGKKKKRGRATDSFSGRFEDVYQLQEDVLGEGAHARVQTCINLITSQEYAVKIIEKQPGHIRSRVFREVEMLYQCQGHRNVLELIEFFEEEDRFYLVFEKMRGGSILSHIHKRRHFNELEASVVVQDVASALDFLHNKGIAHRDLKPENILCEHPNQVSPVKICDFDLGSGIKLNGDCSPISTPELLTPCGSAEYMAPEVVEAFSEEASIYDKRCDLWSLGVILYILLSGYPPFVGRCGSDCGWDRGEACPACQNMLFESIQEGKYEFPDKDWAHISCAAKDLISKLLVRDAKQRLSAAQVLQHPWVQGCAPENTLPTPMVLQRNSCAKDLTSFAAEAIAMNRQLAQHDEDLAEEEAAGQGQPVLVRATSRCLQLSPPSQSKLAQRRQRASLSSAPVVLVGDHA

MTOR (human) = MTOR (human) (UniProt P42345)
NEK3 (human) = NEK3 (human) (UniProt P51956)
NEK7 (human) = NEK7 (human) (UniProt Q8TDX7)
NUAK2 (human) = NUAK2 (human) (UniProt Q9H093)
PAK3 (human) = PAK3 (human) (UniProt O75914)
PAK4 (human) = PAK4 (human) (UniProt O96013)
PHKG2 (human) = PHKG2 (human) (UniProt P15735)
PIP5K1C (human) = PIP5K1C (human) (UniProt O60331)
PRKG2 (human) = PRKG2 (human) (UniProt Q13237)
RPS6KA2 KD1 (human) = RPS6KA2 KD1 (human) (UniProt Q15349)
RPS6KA6 KD1 (human) = RPS6KA6 KD1 (human) (UniProt Q9UK32)
SIK3 (human) = SIK3 (human) (UniProt Q9Y2K2)
Sequence of SIK3 (human) (Q9Y2K2 whole entry, looked up): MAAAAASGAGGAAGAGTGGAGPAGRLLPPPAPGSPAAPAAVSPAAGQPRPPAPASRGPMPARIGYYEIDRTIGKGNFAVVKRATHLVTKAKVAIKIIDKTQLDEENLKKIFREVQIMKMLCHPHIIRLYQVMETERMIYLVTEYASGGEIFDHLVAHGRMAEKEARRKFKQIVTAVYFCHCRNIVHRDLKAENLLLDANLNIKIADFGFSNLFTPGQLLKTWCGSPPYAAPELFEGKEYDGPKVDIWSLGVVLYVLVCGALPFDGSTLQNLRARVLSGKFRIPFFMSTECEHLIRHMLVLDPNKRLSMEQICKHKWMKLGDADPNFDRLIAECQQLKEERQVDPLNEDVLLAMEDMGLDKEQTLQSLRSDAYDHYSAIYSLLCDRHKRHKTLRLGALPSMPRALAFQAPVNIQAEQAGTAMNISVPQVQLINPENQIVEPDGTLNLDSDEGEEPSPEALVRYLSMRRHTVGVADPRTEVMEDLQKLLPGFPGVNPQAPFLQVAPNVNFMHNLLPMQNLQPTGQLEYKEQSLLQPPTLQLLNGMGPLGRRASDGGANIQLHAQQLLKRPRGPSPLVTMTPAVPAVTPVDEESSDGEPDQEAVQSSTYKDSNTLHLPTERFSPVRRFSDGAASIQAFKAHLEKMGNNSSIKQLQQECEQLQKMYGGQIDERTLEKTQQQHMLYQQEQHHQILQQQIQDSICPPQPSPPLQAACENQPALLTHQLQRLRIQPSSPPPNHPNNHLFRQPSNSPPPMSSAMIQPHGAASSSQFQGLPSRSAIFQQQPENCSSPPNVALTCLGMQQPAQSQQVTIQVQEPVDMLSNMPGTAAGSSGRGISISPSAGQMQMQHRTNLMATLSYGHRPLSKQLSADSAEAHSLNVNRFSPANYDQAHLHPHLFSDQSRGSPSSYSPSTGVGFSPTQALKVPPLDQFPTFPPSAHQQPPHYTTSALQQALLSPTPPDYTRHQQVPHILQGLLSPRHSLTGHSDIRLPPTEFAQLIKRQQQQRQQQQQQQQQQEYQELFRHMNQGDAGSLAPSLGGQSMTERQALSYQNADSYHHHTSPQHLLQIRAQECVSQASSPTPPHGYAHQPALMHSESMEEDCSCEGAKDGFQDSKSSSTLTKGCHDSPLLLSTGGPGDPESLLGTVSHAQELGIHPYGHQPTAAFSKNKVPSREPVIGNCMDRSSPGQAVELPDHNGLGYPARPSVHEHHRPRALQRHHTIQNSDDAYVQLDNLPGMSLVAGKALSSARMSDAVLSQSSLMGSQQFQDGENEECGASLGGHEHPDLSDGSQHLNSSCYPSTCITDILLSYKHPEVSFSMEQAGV

STK25 (human) = STK25 (human) (UniProt O00506)
STK39 (human) = STK39 (human) (UniProt Q9UEW8)
SYK (human) = SYK (human) (UniProt P43405)
TLK2 (human) = TLK2 (human) (UniProt Q86UE8)
TNNI3K (human) = TNNI3K (human) (UniProt Q59H18)
ULK2 (human) = ULK2 (human) (UniProt Q8IYT8)
CSNK1G2 (human) = CSNK1G2 (human) (UniProt P78368)
NEK11 (human) = NEK11 (human) (UniProt Q8NG66)

Sequence of ALK (human) (Q9UM73 whole entry, looked up): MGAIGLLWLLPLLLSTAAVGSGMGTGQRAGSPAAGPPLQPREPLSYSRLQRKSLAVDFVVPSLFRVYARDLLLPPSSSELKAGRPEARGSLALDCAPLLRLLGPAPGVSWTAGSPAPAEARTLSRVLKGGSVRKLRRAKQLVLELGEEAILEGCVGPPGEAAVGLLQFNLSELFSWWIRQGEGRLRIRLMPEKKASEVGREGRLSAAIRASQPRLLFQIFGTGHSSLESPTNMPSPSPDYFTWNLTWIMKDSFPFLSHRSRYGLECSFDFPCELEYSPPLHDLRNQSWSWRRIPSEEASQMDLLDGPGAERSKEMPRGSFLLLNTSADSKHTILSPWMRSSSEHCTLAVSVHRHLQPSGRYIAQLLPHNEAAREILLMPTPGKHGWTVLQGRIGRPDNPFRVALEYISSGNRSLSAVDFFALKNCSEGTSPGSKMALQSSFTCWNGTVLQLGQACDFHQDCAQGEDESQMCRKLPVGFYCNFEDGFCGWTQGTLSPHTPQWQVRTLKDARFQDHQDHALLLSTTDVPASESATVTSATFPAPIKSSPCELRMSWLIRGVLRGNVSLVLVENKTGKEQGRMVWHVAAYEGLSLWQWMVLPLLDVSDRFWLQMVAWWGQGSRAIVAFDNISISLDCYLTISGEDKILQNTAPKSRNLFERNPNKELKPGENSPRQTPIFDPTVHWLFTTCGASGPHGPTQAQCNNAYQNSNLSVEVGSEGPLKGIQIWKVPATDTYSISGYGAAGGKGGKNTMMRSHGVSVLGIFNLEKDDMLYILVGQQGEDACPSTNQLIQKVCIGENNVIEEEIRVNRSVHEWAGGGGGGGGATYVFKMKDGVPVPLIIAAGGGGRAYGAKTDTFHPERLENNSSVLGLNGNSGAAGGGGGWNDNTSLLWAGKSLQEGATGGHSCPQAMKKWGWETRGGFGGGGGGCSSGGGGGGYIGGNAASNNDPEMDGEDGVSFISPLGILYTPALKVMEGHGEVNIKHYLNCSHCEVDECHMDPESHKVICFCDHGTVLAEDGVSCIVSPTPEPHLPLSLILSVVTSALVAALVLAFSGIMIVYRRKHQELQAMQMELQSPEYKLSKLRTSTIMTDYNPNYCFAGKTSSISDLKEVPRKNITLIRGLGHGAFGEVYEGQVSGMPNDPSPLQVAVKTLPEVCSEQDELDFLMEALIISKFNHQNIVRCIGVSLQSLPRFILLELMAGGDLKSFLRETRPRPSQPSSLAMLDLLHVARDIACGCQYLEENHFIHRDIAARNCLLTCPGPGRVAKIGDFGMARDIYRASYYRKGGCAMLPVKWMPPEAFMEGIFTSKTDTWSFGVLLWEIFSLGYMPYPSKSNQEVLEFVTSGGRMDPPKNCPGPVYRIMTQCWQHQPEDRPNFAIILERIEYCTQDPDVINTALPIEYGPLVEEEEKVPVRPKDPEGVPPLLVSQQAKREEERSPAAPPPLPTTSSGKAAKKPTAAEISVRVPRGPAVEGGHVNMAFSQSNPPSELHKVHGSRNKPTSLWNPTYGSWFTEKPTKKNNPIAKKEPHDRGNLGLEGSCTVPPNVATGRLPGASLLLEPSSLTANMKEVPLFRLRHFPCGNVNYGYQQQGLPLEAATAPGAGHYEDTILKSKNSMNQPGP

| SMILES | kinase still bound, per cent of control (ACVR2B (human)) | kinase still bound, per cent of control (BMPR1B (human)) | kinase still bound, per cent of control (CAMK1G (human)) | kinase still bound, per cent of control (CAMK2G (human)) | kinase still bound, per cent of control (CDC42BPA (human)) | kinase still bound, per cent of control (CDK3 (human)) | kinase still bound, per cent of control (CDK4 CCND3 (human)) | kinase still bound, per cent of control (CHUK (human)) | kinase still bound, per cent of control (DDR1 (human)) | kinase still bound, per cent of control (DMPK (human)) | kinase still bound, per cent of control (DYRK1B (human)) | kinase still bound, per cent of control (EIF2AK1 (human)) | kinase still bound, per cent of control (EPHA6 (human)) | kinase still bound, per cent of control (FER (human)) | kinase still bound, per cent of control (MAP2K6 (human)) | kinase still bound, per cent of control (MAPK3 (human)) | kinase still bound, per cent of control (MKNK2 (human)) | kinase still bound, per cent of control (MTOR (human)) | kinase still bound, per cent of control (NEK3 (human)) | kinase still bound, per cent of control (NEK7 (human)) | further results |
| --- | --- | --- | --- | --- | --- | --- | --- | --- | --- | --- | --- | --- | --- | --- | --- | --- | --- | --- | --- | --- | --- |
| CCCS(=O)(=O)Nc1ccc(F)c(C(=O)c2c[nH]c3ncc(Cl)cc23)c1F | 28% | 74% | 76% | 96% | 96% | 98% | 70% | 89% | 1.6% | 100% | 87% | 32% | 100% | 58% | 47% | 100% | 84% | 58% | 69% | 59% | kinase still bound, per cent of control (ALK (human)): 14%; kinase still bound, per cent of control (ERBB3 (human)): 28%; kinase still bound, per cent of control (LTK (human)): 34%; kinase still bound, per cent of control (NUAK2 (human)): 41%; kinase still bound, per cent of control (PAK3 (human)): 34%; kinase still bound, per cent of control (PAK4 (human)): 57%; kinase still bound, per cent of control (PHKG2 (human)): 52%; kinase still bound, per cent of control (PIP5K1C (human)): 79%; kinase still bound, per cent of control (PRKG2 (human)): 93%; kinase still bound, per cent of control (RPS6KA2 KD1 (human)): 67%; kinase still bound, per cent of control (RPS6KA6 KD1 (human)): 80%; kinase still bound, per cent of control (SIK3 (human)): 100%; kinase still bound, per cent of control (STK25 (human)): 53%; kinase still bound, per cent of control (STK39 (human)): 100%; kinase still bound, per cent of control (SYK (human)): 100%; kinase still bound, per cent of control (TLK2 (human)): 75%; kinase still bound, per cent of control (TNNI3K (human)): 75%; kinase still bound, per cent of control (ULK2 (human)): 60% |
| CCN(CCO)CCCOc1ccc2c(Nc3cc(CC(=O)Nc4cccc(F)c4)[nH]n3)ncnc2c1 | 100% | 77% | 73% | 100% | 100% | 95% | 100% | 100% | 12% | 93% | 86% | 5.2% | 69% | 100% | 99% | 100% | 6.4% | 100% | 100% | 94% | kinase still bound, per cent of control (ALK (human)): 98%; kinase still bound, per cent of control (CSNK1G2 (human)): 76%; kinase still bound, per cent of control (ERBB3 (human)): 35%; kinase still bound, per cent of control (LTK (human)): 17%; kinase still bound, per cent of control (NEK11 (human)): 98%; kinase still bound, per cent of control (NUAK2 (human)): 54%; kinase still bound, per cent of control (PAK3 (human)): 57%; kinase still bound, per cent of control (PAK4 (human)): 100%; kinase still bound, per cent of control (PHKG2 (human)): 81%; kinase still bound, per cent of control (PIP5K1C (human)): 75%; kinase still bound, per cent of control (PRKG2 (human)): 92%; kinase still bound, per cent of control (RPS6KA2 KD1 (human)): 80%; kinase still bound, per cent of control (RPS6KA6 KD1 (human)): 74%; kinase still bound, per cent of control (SIK3 (human)): 100%; kinase still bound, per cent of control (STK25 (human)): 66%; kinase still bound, per cent of control (STK39 (human)): 100%; kinase still bound, per cent of control (TLK2 (human)): 100%; kinase still bound, per cent of control (TNNI3K (human)): 100%; kinase still bound, per cent of control (ULK2 (human)): 100% |
| CC(=O)c1c(C)c2cnc(Nc3ccc(N4CCNCC4)cn3)nc2n(C2CCCC2)c1=O | 100% | 50% | 20% | 11% | 98% | 74% | 2% | 83% | 60% | 80% | 3.2% | 32% | 96% | 47% | 45% | 64% | 20% | 40% | 100% | 60% | kinase still bound, per cent of control (ALK (human)): 38%; kinase still bound, per cent of control (CSNK1G2 (human)): 92%; kinase still bound, per cent of control (NEK11 (human)): 31%; kinase still bound, per cent of control (NUAK2 (human)): 1%; kinase still bound, per cent of control (PAK3 (human)): 20%; kinase still bound, per cent of control (PHKG2 (human)): 5%; kinase still bound, per cent of control (PIP5K1C (human)): 35%; kinase still bound, per cent of control (PRKG2 (human)): 65%; kinase still bound, per cent of control (RPS6KA2 KD1 (human)): 14%; kinase still bound, per cent of control (RPS6KA6 KD1 (human)): 20%; kinase still bound, per cent of control (SIK3 (human)): 100%; kinase still bound, per cent of control (STK25 (human)): 34%; kinase still bound, per cent of control (STK39 (human)): 6.8%; kinase still bound, per cent of control (TLK2 (human)): 89%; kinase still bound, per cent of control (TNNI3K (human)): 98%; kinase still bound, per cent of control (ULK2 (human)): 0% |
| CCc1nc(-c2cccc(C)c2)c(-c2ccnc(NC(=O)c3ccccc3)c2)s1 | 17% | 100% | 97% | 100% | 82% | 100% | 92% | 100% | 2.8% | 92% | 90% | 100% | 47% | 60% | 79% | 98% | 94% | 100% | 100% | 100% | kinase still bound, per cent of control (CSNK1G2 (human)): 19%; kinase still bound, per cent of control (ERBB3 (human)): 49%; kinase still bound, per cent of control (LTK (human)): 26%; kinase still bound, per cent of control (NEK11 (human)): 100%; kinase still bound, per cent of control (NUAK2 (human)): 100%; kinase still bound, per cent of control (PAK3 (human)): 82%; kinase still bound, per cent of control (PAK4 (human)): 86%; kinase still bound, per cent of control (PHKG2 (human)): 76%; kinase still bound, per cent of control (PIP5K1C (human)): 100%; kinase still bound, per cent of control (PRKG2 (human)): 100%; kinase still bound, per cent of control (RPS6KA2 KD1 (human)): 100%; kinase still bound, per cent of control (RPS6KA6 KD1 (human)): 94%; kinase still bound, per cent of control (SIK3 (human)): 94%; kinase still bound, per cent of control (STK25 (human)): 84%; kinase still bound, per cent of control (STK39 (human)): 100%; kinase still bound, per cent of control (SYK (human)): 88%; kinase still bound, per cent of control (TLK2 (human)): 87%; kinase still bound, per cent of control (TNNI3K (human)): 86%; kinase still bound, per cent of control (ULK2 (human)): 100% |
